Assay results as given in ChEMBL document CHEMBL1151487, “DHPMP: a novel group I specific metabotropic glutamate receptor agonist” (Bioorg Med Chem Lett, 1996).

Legend:
[1] = Compound was evaluated for its activity at group I mGluRs for the generation of [3H]inositol phosphate using [3H]inositol pre-labelled guinea-pig cerebral cortex slices.; assay type: tissue-based, Cavia porcellus
Cavia porcellus = organism: Cavia porcellus; assay: Compound was evaluated for inhibition of forskolin-stimulated cAMP generation at Group II and Group III mGluRs; assay type: functional

SMILES | Log EC50 [1] | EC50 (Cavia porcellus)
N[C@H](C(=O)O)c1cc(O)cc(O)c1 | -4.9 | –
NC(c1cc(O)cc(O)c1)[PH](=O)O (stereo not drawn) | -4.56 | 2090 nM
